Test results published in ChEMBL document CHEMBL1949608, “Induction of apoptosis in HL-60 cells through the ROS-mediated mitochondrial pathway by ramentaceone from Drosera aliciae” (J Nat Prod, 2012).
pIC50: −log10 of the molar value. The source made the active and inactive calls. The calls are words filed in the database; no cut-off is given here.

Key:
HL-60 [1] = assay: Induction of apoptosis in human HL60 cells assessed as formation of chromatin condensation at 10 uM after 24 hrs by Hoechst 33342 and propidium iodide staining; type: functional, cell-based
HL-60 [2] = assay: Induction of apoptosis in human HL60 cells assessed as formation of apoptotic body at 10 uM after 24 hrs by fluorescence microscopic analysis; type: functional, cell-based
HL-60 [3] = assay: Induction of apoptosis in human HL60 cells assessed as formation of cell shrinkage at 10 uM after 24 hrs by fluorescence microscopic analysis; type: functional, cell-based
HL-60 [4] = assay: Induction of apoptosis in human HL60 cells assessed as formation of membrane blebbing at 10 uM after 24 hrs by fluorescence microscopic analysis; type: functional, cell-based
HL-60 [5] = assay: Cytotoxicity against human HL60 cells after 24 hrs by MTT assay; type: functional, cell-based
HL-60 [6] = assay: Cell cycle arrest in human HL60 cells assessed as accumulation at sub-G1 phase at 5 uM after 12 hrs using propidium iodide staining by flow cytometry (reference value: 5.2%); type: functional
HL-60 [7] = assay: Cell cycle arrest in human HL60 cells assessed as accumulation at sub-G1 phase at 10 uM after 12 hrs using propidium iodide staining by flow cytometry (reference value: 5.2%); type: functional
HL-60 [8] = assay: Cell cycle arrest in human HL60 cells assessed as accumulation at sub-G1 phase at 5 uM after 24 hrs using propidium iodide staining by flow cytometry (reference value: 6.6%); type: functional
HL-60 [9] = assay: Cell cycle arrest in human HL60 cells assessed as accumulation at sub-G1 phase at 10 uM after 24 hrs using propidium iodide staining by flow cytometry (reference value: 6.6%); type: functional
HL-60 [10] = assay: Cell cycle arrest in human HL60 cells assessed as accumulation at sub-G1 phase after 12 to 24 hrs using propidium iodide staining by flow cytometry; type: functional, cell-based
HL-60 [11] = assay: Cell cycle arrest in human HL60 cells assessed as accumulation at sub-G1 phase at 5 to 10 uM using propidium iodide staining by flow cytometry; type: functional, cell-based; details: TDE = time-dependent effect
HL-60 [12] = assay: Cell cycle arrest in human HL60 cells assessed as accumulation at G0/G1 phase at 10 uM after 24 hrs using propidium iodide staining by flow cytometry; type: functional, cell-based
HL-60 [13] = assay: Cell cycle arrest in human HL60 cells assessed as accumulation at G2/M phase at 10 uM after 24 hrs using propidium iodide staining by flow cytometry; type: functional, cell-based
HL-60 [14] = assay: Induction of apoptosis in human HL60 cells assessed as loss of mitochondrial membrane potential using CMTMRos after 24 hrs by flow cytometry; type: functional, cell-based
HL-60 [15] = assay: Induction of apoptosis in human HL60 cells assessed as increase in Bak protein level after 24 hrs by Western blotting; type: functional, cell-based
HL-60 [16] = assay: Induction of apoptosis in human HL60 cells assessed as increase in Bax protein level after 24 hrs by Western blotting; type: functional, cell-based
HL-60 [17] = assay: Induction of apoptosis in human HL60 cells assessed as decrease in Bcl-2 protein level at 5 to 10 uM after 24 hrs by Western blotting; type: functional, cell-based
HL-60 [18] = assay: Induction of apoptosis in human HL60 cells assessed as increase in cytochrome c release from mitochondria to cytosol after 24 hrs by Western blotting; type: functional, cell-based
HL-60 [19] = assay: Induction of apoptosis in human HL60 cells assessed as increase of caspase-3-mediated Ac-DEVD-pNA cleavage at 10 uM after 12 hrs; type: functional, cell-based
HL-60 [20] = assay: Induction of apoptosis in human HL60 cells assessed as increase of caspase-3-mediated Ac-DEVD-pNA cleavage at 10 uM after >12 hrs; type: functional, cell-based
HL-60 [21] = assay: Induction of apoptosis in human HL60 cells assessed as increase of ROS production using H2DCFDA after 3 hrs by flow cytometry; type: functional, cell-based
HL-60 [22] = assay: Induction of apoptosis in human HL60 cells assessed as increase of ROS production using H2DCFDA after 3 hrs by flow cytometry in presence of N-acetylcysteine; type: functional, cell-based
HL-60 [23] = assay: Cell cycle arrest in human HL60 cells assessed as accumulation at sub-G1 phase at 10 uM after 24 hrs using propidium iodide staining by flow cytometry in presence of N-acetylcysteine; type: functional

Cc1cc(O)c2c(c1)C(=O)C=CC2=O [RAMENTACEONE]
Activity (HL-60 [1]): Active
Activity (HL-60 [2]): Active
Activity (HL-60 [3]): Active
Activity (HL-60 [4]): Active
Activity (HL-60 [5]): Dose-dependent effect
pIC50 (HL-60 [5]; HL-60, 24 h): 5.06
Activity (HL-60 [6]): 10.3%
Activity (HL-60 [7]): 17.1%
Activity (HL-60 [8]): 12.6%
Activity (HL-60 [9]): 27.5%
Activity (HL-60 [10]): Dose-dependent effect
Activity (HL-60 [11]): tde
Activity (HL-60 [12]): Active
Activity (HL-60 [13]): Active
Activity (HL-60 [14]): Dose-dependent effect
Activity (HL-60 [15]): Dose-dependent effect
Activity (HL-60 [16]): Dose-dependent effect
Activity (HL-60 [17]): Active
Activity (HL-60 [18]): Dose-dependent effect
Activity (HL-60 [19]): Active
Activity (HL-60 [20]): inactive
Activity (HL-60 [21]): Dose-dependent effect
Activity (HL-60 [22]): inactive
Activity (HL-60 [23]): 12.3%
